Laboratory results as given in PubChem BioAssay AID463229 (Broad Institute, 2010).
Calls of active or inactive are those of the source.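 How the source made its calls: active means compounds raising the signal whose fitted half-maximal concentration is at or below their top tested dose (cut at about 25 µM in these data); inconclusive means flat fit at 30 to 70% activity, or a poor fit; inactive means the rest.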

What follows are compounds tested on INS-1E rat beta cells, no cytokines, CellTiter-Glo ATP, 48 h (assay: cytokine-free beta-cell viability effect – INS-1E rat cells, ATP luminescence, cherry pick, counter-screen for beta-cell apoptosis protection project, dose response (AID 463229)).
With `COc1ccc(C2/C=C\CN(C(=O)Nc3ccc(C(F)(F)F)cc3)CC(=O)N2Cc2ccc(F)cc2)cc1` (configuration not stated) the AC50 was 7.66 µM. For `COc1ccccc1N(CC(=O)N/N=C/c1c(O)ccc2ccccc12)S(C)(=O)=O`, the AC50 was 7.54 µM. Compound `O=C(N/N=C/c1ccccc1O)c1ccc2c(c1)OCO2` has an AC50 of 7.41 µM. In the case of `CC(C)(C)OC(=O)NCc1ccc(NC(=O)c2nc[nH]c2C(=O)NCCNC(=O)c2[nH]cnc2C(=O)Nc2ccc(CNC(=O)OC(C)(C)C)cc2)cc1`, the AC50 is reported as 10.8 µM. With `CCCOCc1ccc(O)c2ncccc12` the AC50 was 7.79 µM. In the case of `O=C(C#Cc1ccccc1)Nc1cccc(F)c1`, the AC50 is reported as 11.8 µM. `C#CCOCCOCCOCCNc1nc(N2CCN(C(=O)CCCCCCCCCCNC(=O)[C@@H](CCSC)n3cc(CCO)nn3)CC2)nc(N2CCN(C(=O)CCCCCCCCCCNC(=O)[C@H]([C@@H](C)CC)n3cc(CCCCCN)nn3)CC2)n1` was tested, and the AC50 was 12.9 µM. `CCC1(OC(=O)CN)C(=O)OCc2c1cc1n(c2=O)Cc2cc3ccccc3nc2-1` (configuration not stated) was tested, and the AC50 was less than 0.195 µM. `CCn1c(NN=O)nc2ccccc21` gave an AC50 of 7.85 µM. With `O=S(=O)(c1ccc(Cl)cc1)N1CCN(Cc2ccc(O)c3ncccc23)CC1` the AC50 was 7.13 µM. Work on `Cc1cc(C(C)(C)CC(C)(C)C)ccc1OCCOCC[N+](C)(C)Cc1ccccc1` yielded an AC50 of 4.07 µM. `c1ccc(-c2cccc(-c3ccccn3)n2)nc1` was tested, and the AC50 was 1.24 µM. With `COC(=O)C1=C(C)N(Cc2ccccc2)C(=NCc2ccccc2)N[C@H]1c1cccc(C(F)(F)F)c1` the AC50 was 14.1 µM. Work on `N#CC(C#N)=C1C=CC=CN1/C(=C\c1ccco1)C(=O)c1ccccc1` yielded an AC50 of 13 µM. Work on `CCOc1cc(N2CCOCC2)c(OCC)cc1NC(=O)COc1cccc2cccnc12` yielded an AC50 of 3.61 µM. For `COc1ccc(NS(=O)(=O)c2ccc(-c3cnc(C4CC4)o3)cc2)cc1OC`, the AC50 was 6.58 µM. `CC(=O)NC(c1cc(Cl)c2cccnc2c1O)C(C)C` (configuration not stated) gave an AC50 of 8.18 µM. Work on `O=C(N/N=C/c1cc(Cl)ccc1O)C(=O)Nc1ccccc1OC(F)(F)C(F)F` yielded an AC50 of 8.81 µM. `CCN1c2ccccc2N(C)C1(C)c1ccccc1` (configuration not stated) was tested, and the AC50 was 4.56 µM. `COc1ccc(-c2ccc([C@H]3[C@@H]4C=CCC[C@@]4(C)C(=O)N3Cc3ccccc3)c(F)c2)cc1` showed an AC50 of 22.5 µM. Work on `COc1cc(CC(=O)Nc2nc(-c3ccc(F)c(F)c3)cs2)cc(OC)c1OC` yielded an AC50 of 7.17 µM. With `CCCCCCCC[n+]1c(C)n(-c2ccccc2)c2ccc(NC(C)=O)cc21` the AC50 was 3.76 µM. In the case of `CCc1nc(N2CCN(C(C)=O)CC2)c2c3c(sc2n1)CC(C(C)(C)C)CC3` (configuration not stated), the AC50 is reported as 2.79 µM. Compound `CCOc1ccc2nc(NC(=O)c3ccccn3)sc2c1` has an AC50 of 6.67 µM. With `CNC(=O)c1cc(Oc2ccc(NC(=O)Nc3ccc(Cl)c(C(F)(F)F)c3)cc2)ccn1` the AC50 was 7.39 µM. Work on `COc1ccc2c(c1)[nH]c1c(N3CCN(Cc4ccc5c(c4)OCO5)CC3)ncnc12` yielded an AC50 of 3.45 µM. `COc1cccc(N=Nc2ccc3cccnc3c2O)c1` showed an AC50 of 6.8 µM. Work on `Cn1c2c(c(=O)n(C)c1=O)C(C(F)(F)F)(C(F)(F)F)N=C(c1ccc(Cl)cc1)N2` yielded an AC50 of 0.56 µM. `COc1cccc(/C=N\NC(=O)c2ccc(Cn3cc(Br)c([N+](=O)[O-])n3)o2)c1O` was tested, and the AC50 was 7.9 µM. `O=NN(CCc1ccncc1)c1ccc(OCc2ccccc2)cc1` was tested, and the AC50 was 8.16 µM. For `CCOc1ccc(-c2c[n+]3c(n2-c2ccccc2)CCCCC3)cc1`, the AC50 was 0.982 µM. `COc1ccc(-c2c([C@H]3[C@H]4C=CC[C@@H](C)[C@@H]4C(=O)N3Cc3ccccc3)ccc3ccccc23)cc1` was tested, and the AC50 was 7.67 µM. With `OCc1ccc(O)c2ncccc12` the AC50 was 2.38 µM. `CN(C)c1ccc(/C=C/c2ccc3ccccc3n2)cc1` was tested, and the AC50 was 2.28 µM. Work on `CCOC(=O)c1ccc(NC(=O)NCc2cccnc2)cc1` yielded an AC50 of 2.01 µM. `O=C(NCc1cccnc1)/C(=C/c1ccc(-c2ccc(Cl)cc2)o1)S(=O)(=O)c1ccccc1` was tested, and the AC50 was 6.93 µM. Work on `CCCC(=O)NC(c1ccccc1Cl)c1ccc2cccnc2c1O` (configuration not stated) yielded an AC50 of 2.13 µM. In the case of `O=C(N/N=C/c1sc2ccccc2c1O)c1ccccc1`, the AC50 is reported as 3.92 µM. Work on `COc1ccc(C(=O)NC(=S)NNC(=O)c2cnccn2)cc1OC` yielded an AC50 of 7.95 µM. Compound `COc1ccccc1OCCCCOc1ccccc1C(C)=O` has an AC50 of 23 µM. `CCCCCCCCCCCCCCCC[n+]1cccc(C(=O)N(CC)CC)c1` was tested, and the AC50 was 8.01 µM. `CCCC(=O)NC(c1ccc2c(c1)OCO2)c1cc(Cl)c2cccnc2c1O` (configuration not stated) gave an AC50 of 4.39 µM. `CCCCSc1nc2sc3c(c2c(=O)n1-c1ccc(C)cc1)CCN(C)C3` gave an AC50 of 22.4 µM. `Cc1ccc(C(C)C)c(OCc2ccc(C(=O)N/N=C/c3cccc(O)c3O)cc2)c1` showed an AC50 of 7.27 µM. With `Fc1ccc2nc(Nc3nc4c(F)cc(F)cc4s3)sc2c1` the AC50 was 7.69 µM. In the case of `Nc1nonc1-n1nnc(C(=O)N/N=C/c2ccccc2O)c1CN1CCCC1`, the AC50 is reported as 22.9 µM. With `Cc1ccc(NC(=O)c2ccc([N+](=O)[O-])o2)cc1S(=O)(=O)N1CCOCC1` the AC50 was 14.3 µM. `O=C(/C=C/c1ccc(-c2ccccc2)cc1)NCc1cccnc1` showed an AC50 of 9.36 µM. `CCC1=NN(C(=O)c2cccc(Br)c2)C(O)(c2ccc(Br)cc2)C1` (configuration not stated) showed an AC50 of 9.79 µM. `O=C(N/N=C/c1sc2ccccc2c1O)c1cccc2ccccc12` showed an AC50 of 4.8 µM. For `COc1ccc(C(=O)N/N=C/c2ccccc2OC(=O)c2ccccc2)cc1`, the AC50 was 7.93 µM. Work on `CCS(=O)(=O)c1ncc(Cl)c(C(=O)Nc2ccc(S(=O)(=O)N3CCCC(C)C3)cc2)n1` (configuration not stated) yielded an AC50 of 6.96 µM. Compound `CCC(O)C1CCN(C(=O)c2cc(COc3ccc4ncccc4c3)on2)CC1` (configuration not stated) has an AC50 of 5.52 µM. In the case of `Cc1ccc(/C=N/NC(=O)Cc2ccc(Cl)cc2)c(O)c1`, the AC50 is reported as 12.3 µM. With `COc1cc(C)c(C(=O)CC(=O)c2c(C)cc(OC)cc2C)c(C)c1` the AC50 was 13.7 µM. With `Cn1cc(CNCc2ccc(OC(F)(F)F)cc2)c(-c2ccc3c(c2)OCCO3)n1` the AC50 was 3.64 µM. `COc1nc(Nc2nc3ccccc3c(=O)[nH]2)nc2ccc(C)cc12` showed an AC50 of 2.31 µM. `CCC(C)Sc1ccc(-c2nc3ccc(C)cn3c2NCc2ccccc2)cc1OC` (configuration not stated) was tested, and the AC50 was 6.46 µM. `CCN1CCN(c2c(Cl)cccc2NC(=O)c2ccc([N+](=O)[O-])o2)CC1` gave an AC50 of 7.11 µM. With `O=C1/C(=C/c2ccc(N3CCOCC3)o2)SC(=Nc2ccccc2)N1CCc1c[nH]c2ccccc12` the AC50 was > 26 µM (inactive). `C/C(=N\NC(=O)c1ccccc1NC(=O)c1ccc(Cl)cc1)c1ccncc1` showed an AC50 of 0.967 µM. `COC1=C(Nc2ccccc2)C(=O)c2ccccc2C1=O` gave an AC50 of 17.4 µM. Work on `Cc1cc(C)nc(SCC(=O)Nc2ccnc3ccccc23)n1` yielded an AC50 of 7.55 µM. With `CCCCC(CC)CN1C(=O)/C(=C/c2ccncc2)SC1=S` (configuration not stated) the AC50 was > 26 µM (inactive). With `N#C/C(=N\Nc1ccc(Cl)cc1)C(=O)c1ccccc1` the AC50 was 2.84 µM. In the case of `c1ccc2c(CN3CCCCCC3)c[nH]c2c1`, the AC50 is reported as 3.61 µM. For `Cc1cccc2sc(NNC(=O)c3ccc(S(=O)(=O)N4CCCC(C)C4)cc3)nc12` (configuration not stated), the AC50 was 6.74 µM. `CCN(CC)C(=O)c1cc([N+](=O)[O-])cc2c1-c1ccc([N+](=O)[O-])cc1C2=C(C#N)C#N` was tested, and the AC50 was 9.06 µM. For `COc1cc2ccccc2cc1C(=O)Nc1sc2c(c1C(N)=O)CCN(C(C)C)C2`, the AC50 was 9.16 µM. For `c1ccc(-c2nnc(-c3ccccn3)nc2NC2CCCCC2)cc1`, the AC50 was 3.52 µM. `CCN1C/C(=C/c2ccc(OC)c(O)c2)C(=O)/C(=C/c2ccc(OC)c(O)c2)C1` gave an AC50 of 4.92 µM. `COc1ccc(OCc2n(CC(=O)OC3CC(C)CCC3C(C)C)c3ccccc3[n+]2C)cc1` (configuration not stated) gave an AC50 of 4.3 µM. For `CCCCC[n+]1cccc2c3ccccc3ccc21`, the AC50 was 5.92 µM. Compound `C=C1CCc2c([nH]c3ccc(OCC(C)C)cc23)C1=O` has an AC50 of 7.5 µM. Compound `Cc1ccc(C)c(N2CCN(C(=O)CCCOc3cc(=O)n(C)c4ccccc34)CC2)c1` has an AC50 of 2.7 µM. With `O=[N+]([O-])c1cc(CN2CCN(c3ccccc3)CC2)c(O)c2ncccc12` the AC50 was 3.1 µM. Work on `N#Cc1c([N+](=O)[O-])cc([N+](=O)[O-])cc1S(=O)(=O)Cc1ccccc1` yielded an AC50 of 4.91 µM.
